Source: patent US20230321123A1, “INHIBITORS OF PSEUDOMONAS AERUGINOSA VIRULENCE FACTOR LasB” (Helmholtz-Zentrum Für Infektionsforschung GmbH, priority 2020, published 2023)

Columns and labels:
LasB = LasB (Pseudomonas aeruginosa, UniProt Q02RJ6); test: biochemical; parameters: species or system P. aeruginosa; conditions: IC50 against LasB
MMP-3 = MMP-3 (Homo sapiens, UniProt P08254); test: Selectivity against human off-targets: MMP-3; format: biochemical; conditions: at 100 μM; read-out: Inhibition [%] MMP-3
Excerpt: (§1) The inhibition of zinc-containing human enzymes is described frequently for LasB inhibitors and poses a serious difficulty in the development of selective compounds. Particularly, the inhibition of matrix metalloproteases (MMPs) should be avoided. To further investigate this issue, three derivatives (the compounds of examples 1, 5 and 8) have been tested for their selectivity against several human off-targets, including six MMPs, ADAM17 (TACE), HDAC-3 and HDAC-8 (Table 4). The selectivity of the compounds is particularly high for MMPs and HDACs, whereas the inhibition of ADAM17 was considerably stronger.

Cytotoxicity A549 = format: cell-based; conditions: human; A549
Method: (§2) The compounds of examples 1 and 5 were not toxic against the cell lines HepG2, HEK293 and A549 (Table 5). Additionally, the inhibitory effect against P. aeruginosa PA14 was evaluated to exclude an antibacterial effect of the compounds of the present invention. This is important as it was the aim to target virulence and not viability of the bacteria. […]

HDAC-8 = molecular target: T1, HDAC-8 (Homo sapiens, UniProt Q9BY41); test: Selectivity against human off-targets: HDAC-8; format: biochemical; conditions: read-out: IC50 HDAC-8
T1 sequence (Q9BY41 1-377): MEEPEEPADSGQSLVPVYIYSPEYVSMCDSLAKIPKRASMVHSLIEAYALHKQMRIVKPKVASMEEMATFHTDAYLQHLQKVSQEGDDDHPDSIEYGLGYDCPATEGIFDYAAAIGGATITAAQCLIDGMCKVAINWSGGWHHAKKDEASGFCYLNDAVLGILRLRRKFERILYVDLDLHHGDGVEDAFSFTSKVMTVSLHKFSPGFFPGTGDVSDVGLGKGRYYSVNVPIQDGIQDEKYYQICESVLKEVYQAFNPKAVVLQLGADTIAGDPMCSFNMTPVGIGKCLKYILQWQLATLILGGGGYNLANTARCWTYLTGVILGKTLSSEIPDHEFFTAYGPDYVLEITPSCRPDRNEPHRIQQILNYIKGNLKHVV
Excerpt: as §1

HDAC-3 = HDAC-3 (Homo sapiens, UniProt O15379); test: Selectivity against human off-targets: HDAC-3; format: biochemical; conditions: read-out: IC50 HDAC-3
Excerpt: as §1

Cytotoxicity HEK293 = format: cell-based; conditions: human; HEK293
Method: as §2

MMP-1 = molecular target: T2, MMP-1 (Homo sapiens, UniProt P03956); test: Selectivity against human off-targets: MMP-1; format: biochemical; conditions: at 100 μM; read-out: Inhibition [%] MMP-1
T2 sequence (P03956 100-469): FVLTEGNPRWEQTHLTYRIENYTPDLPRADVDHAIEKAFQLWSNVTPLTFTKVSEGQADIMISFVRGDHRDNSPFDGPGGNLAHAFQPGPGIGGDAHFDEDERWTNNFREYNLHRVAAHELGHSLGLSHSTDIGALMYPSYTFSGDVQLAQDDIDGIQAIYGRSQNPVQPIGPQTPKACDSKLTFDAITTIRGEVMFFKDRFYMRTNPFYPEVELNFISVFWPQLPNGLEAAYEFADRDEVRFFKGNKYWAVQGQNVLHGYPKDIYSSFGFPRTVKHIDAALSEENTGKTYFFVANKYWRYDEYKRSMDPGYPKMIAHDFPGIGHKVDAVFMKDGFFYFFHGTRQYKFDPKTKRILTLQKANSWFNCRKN
Excerpt: as §1

MMP-2 = molecular target: T3, MMP-2 (Homo sapiens, UniProt P08253); test: Selectivity against human off-targets: MMP-2; format: biochemical; conditions: at 100 μM; read-out: Inhibition [%] MMP-2
T3 sequence (P08253 110-660): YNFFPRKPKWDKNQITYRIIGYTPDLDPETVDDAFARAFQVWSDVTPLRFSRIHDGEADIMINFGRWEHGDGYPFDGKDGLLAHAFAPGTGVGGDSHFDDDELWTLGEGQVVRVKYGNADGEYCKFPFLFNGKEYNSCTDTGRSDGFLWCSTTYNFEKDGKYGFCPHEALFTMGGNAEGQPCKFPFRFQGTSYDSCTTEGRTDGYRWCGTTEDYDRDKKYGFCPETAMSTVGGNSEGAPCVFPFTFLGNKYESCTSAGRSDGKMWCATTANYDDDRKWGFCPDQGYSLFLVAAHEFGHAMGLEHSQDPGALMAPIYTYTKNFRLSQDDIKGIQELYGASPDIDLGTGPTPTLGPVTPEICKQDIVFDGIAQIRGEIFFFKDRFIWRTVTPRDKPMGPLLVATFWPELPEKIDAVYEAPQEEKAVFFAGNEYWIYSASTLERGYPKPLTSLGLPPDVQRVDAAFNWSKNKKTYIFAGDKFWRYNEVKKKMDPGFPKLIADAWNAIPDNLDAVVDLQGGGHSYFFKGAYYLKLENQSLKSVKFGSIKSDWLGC
Excerpt: as §1

ADAM17 (TACE) = ADAM17 (TACE) (Homo sapiens, UniProt P78536); test: Selectivity against human off-targets: ADAM17 (TACE); format: biochemical; conditions: read-out: IC50 ADAM17 (TACE)
Cytotoxicity HepG2 = format: cell-based; conditions: human; HepG2
Method: as §2

P. aeruginosa PA14 = test: PA14 inhibition (MIC, antibacterial effect); format: cell-based; conditions: Pseudomonas aeruginosa, PA14; read-out: MIC PA14
Method: as §2

LasB, sequence (Q02RJ6 198-498): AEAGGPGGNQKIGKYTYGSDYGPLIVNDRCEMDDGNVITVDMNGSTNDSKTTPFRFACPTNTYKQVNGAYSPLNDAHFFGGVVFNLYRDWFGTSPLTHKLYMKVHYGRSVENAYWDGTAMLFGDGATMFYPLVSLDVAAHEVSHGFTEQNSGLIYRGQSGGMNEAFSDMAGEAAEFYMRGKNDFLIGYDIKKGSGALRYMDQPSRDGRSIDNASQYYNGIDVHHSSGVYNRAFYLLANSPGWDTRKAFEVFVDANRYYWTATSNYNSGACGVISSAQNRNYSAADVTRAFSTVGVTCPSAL
HDAC-3, sequence (O15379 whole entry): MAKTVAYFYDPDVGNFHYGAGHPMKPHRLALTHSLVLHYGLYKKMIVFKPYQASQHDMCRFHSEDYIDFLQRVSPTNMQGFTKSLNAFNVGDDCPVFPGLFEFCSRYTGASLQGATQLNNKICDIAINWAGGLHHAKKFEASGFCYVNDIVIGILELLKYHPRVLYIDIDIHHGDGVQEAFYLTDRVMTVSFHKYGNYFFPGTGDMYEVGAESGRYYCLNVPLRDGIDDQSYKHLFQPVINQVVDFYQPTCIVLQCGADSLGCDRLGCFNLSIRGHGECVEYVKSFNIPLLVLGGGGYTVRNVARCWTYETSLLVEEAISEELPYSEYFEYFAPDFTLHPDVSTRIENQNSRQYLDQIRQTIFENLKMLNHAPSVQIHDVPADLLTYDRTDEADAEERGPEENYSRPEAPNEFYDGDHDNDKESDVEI
HDAC-3, sequence (Q9Y618 395-489 partner limits assumed): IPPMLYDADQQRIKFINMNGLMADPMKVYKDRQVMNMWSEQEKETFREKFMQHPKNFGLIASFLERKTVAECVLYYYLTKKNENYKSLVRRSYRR
ADAM17 (TACE), sequence (P78536 215-824): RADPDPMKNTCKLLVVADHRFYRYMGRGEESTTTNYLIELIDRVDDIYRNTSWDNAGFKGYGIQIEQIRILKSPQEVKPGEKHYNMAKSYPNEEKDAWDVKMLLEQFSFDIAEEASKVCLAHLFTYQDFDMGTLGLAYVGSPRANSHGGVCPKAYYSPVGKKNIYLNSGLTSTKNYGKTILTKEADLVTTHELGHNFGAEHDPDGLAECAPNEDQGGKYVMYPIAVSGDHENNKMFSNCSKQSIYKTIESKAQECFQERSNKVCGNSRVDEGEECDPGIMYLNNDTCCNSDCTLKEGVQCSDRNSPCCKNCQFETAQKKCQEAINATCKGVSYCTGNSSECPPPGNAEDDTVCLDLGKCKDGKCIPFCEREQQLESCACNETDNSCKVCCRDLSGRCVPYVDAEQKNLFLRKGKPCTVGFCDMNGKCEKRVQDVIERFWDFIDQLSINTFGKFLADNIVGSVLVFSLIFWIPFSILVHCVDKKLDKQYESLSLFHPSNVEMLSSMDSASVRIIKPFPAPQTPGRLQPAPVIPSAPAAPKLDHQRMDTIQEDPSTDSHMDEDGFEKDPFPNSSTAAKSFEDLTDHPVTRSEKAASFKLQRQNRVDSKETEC
MMP-3, sequence (P08254 100-477): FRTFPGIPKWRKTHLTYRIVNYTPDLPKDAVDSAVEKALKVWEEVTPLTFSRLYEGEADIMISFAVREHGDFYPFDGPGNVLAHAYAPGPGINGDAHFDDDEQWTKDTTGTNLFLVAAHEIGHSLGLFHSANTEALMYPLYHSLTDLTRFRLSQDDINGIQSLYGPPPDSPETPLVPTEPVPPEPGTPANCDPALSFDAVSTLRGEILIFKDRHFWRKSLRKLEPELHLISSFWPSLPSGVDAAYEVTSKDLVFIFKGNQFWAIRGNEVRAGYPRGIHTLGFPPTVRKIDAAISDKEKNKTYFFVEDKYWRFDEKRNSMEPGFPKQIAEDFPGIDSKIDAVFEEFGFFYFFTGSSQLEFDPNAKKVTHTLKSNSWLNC

Which IC50 (LasB) does the source give for `CC(C)CC(C(=O)NCC(=O)Nc1ccc(Cl)c(Cl)c1)P(=O)(O)O` (stereo not shown) [Example 163] here?
Its IC50 is 1.756 ± 0.003 µM.

With `CC(C)CC(C(=O)N[C@@H](CC1CC1)C(=O)Nc1ccc(Cl)c(Cl)c1)P(=O)(O)O` (stereo partly shown) [Example 164] as the compound, how does the IC50 (LasB) read?
The IC50 was 0.027 ± 0.001 µM.

Which IC50 (LasB) does the source give for `CC(C)CC(C(=O)N[C@H](C(=O)Nc1ccc(Cl)c(Cl)c1)c1ccccc1)P(=O)(O)O` (stereo partly shown) [Example 165] here?
The IC50 was 0.1 ± 0.003 µM.

For `CC(C)CC(C(=O)N1CCC[C@H]1C(=O)Nc1ccc(Cl)c(Cl)c1)P(=O)(O)O` (stereo partly shown) [Example 166], which IC50 (LasB) is on record?
Its IC50 is 2.54 ± 0.069 µM.

For `CC(C)CC(C(=O)N[C@@H](C(=O)Nc1ccc(Cl)c(Cl)c1)C(C)C)P(=O)(O)O` (stereo partly shown) [Example 167], which IC50 (LasB) is on record?
The IC50 was 0.011 µM.

For `CC(C)CC(C(=O)N[C@H](CC(=O)Nc1ccc(Cl)c(Cl)c1)C(C)C)P(=O)(O)O` (stereo partly shown) [Example 168], which IC50 (LasB) is on record?
Its IC50 is 1.76 ± 0.03 µM.

With `CC(C)CC(C(=O)N[C@@H](CC1CCOCC1)C(=O)Nc1ccc(Cl)c(Cl)c1)P(=O)(O)O` (stereo partly shown) [Example 169] as the compound, how does the IC50 (LasB) read?
The IC50 was 0.378 ± 0.008 µM.

With `Cc1ccc(NC(=O)C(CC(C)C)C(=O)NO)cc1` (stereo not shown) [Example 173, N^1-hydroxy-2-isobutyl-N^3-(p-tolyl)malonamide] as the compound, how does the inhibition at 100 µM (MMP-3) read?
The inhibition at 100 µM was 16 ± 7%.

And the IC50 (Cytotoxicity A549)?
The IC50 was > 100 µM.

And the IC50 (HDAC-8)?
Its IC50 is > 100 µM.

And the IC50 (HDAC-3)?
The IC50 was > 100 µM.

And the IC50 (Cytotoxicity HEK293)?
The IC50 was > 100 µM.

What about the inhibition at 100 µM (MMP-1) of the same compound?
Its inhibition at 100 µM is 29 ± 3%.

And the inhibition at 100 µM (MMP-2)?
The inhibition at 100 µM was 26 ± 2%.

What about the IC50 (ADAM17 (TACE)) of the same compound?
Its IC50 is 16 ± 2 µM.

And the IC50 (Cytotoxicity HepG2)?
Its IC50 is > 100 µM.

What about the MIC (P. aeruginosa PA14) of the same compound?
The MIC was > 100 µM.

What about the IC50 (LasB) of the same compound?
The IC50 was 0.014 ± 0.001 µM.

For `Cc1ccc(NC(=O)C(CC(C)C)n2ccnn2)cc1` (stereo not shown) [Example 174, 4-Methyl-N-(p-tolyl)-2-(1H-1,2,3-triazol-1-yl)pentanamide], which inhibition at 100 µM (MMP-3) is on record?
The inhibition at 100 µM was -3 ± 17%.

And the IC50 (Cytotoxicity A549)?
Its IC50 is > 100 µM.

And the IC50 (HDAC-8)?
The IC50 was > 100 µM.

What about the IC50 (HDAC-3) of the same compound?
Its IC50 is > 100 µM.

And the IC50 (Cytotoxicity HEK293)?
The IC50 was > 100 µM.

And the IC50 (ADAM17 (TACE))?
The IC50 was > 100 µM.

What about the IC50 (Cytotoxicity HepG2) of the same compound?
The IC50 was > 100 µM.

What about the MIC (P. aeruginosa PA14) of the same compound?
The MIC was > 100 µM.

What about the IC50 (LasB) of the same compound?
The IC50 was 2.8 ± 0.1 µM.

With `CC(C)CC(C(=O)Nc1ccc(Cl)c(Cl)c1)n1ccnn1` (stereo not shown) [Example 175] as the compound, how does the IC50 (LasB) read?
Its IC50 is 4.3 ± 0.2 µM.

With `CC(C)CC(C(=O)Nc1ccc(OCc2ccc(Cl)c(Cl)c2)cc1)n1ccnn1` (stereo not shown) [Example 176] as the compound, how does the IC50 (LasB) read?
Its IC50 is 45.6 µM.

Which results are given for `Cc1ccc(NC(=O)C(CC(C)C)n2nccn2)cc1` (stereo not shown) [Example 177, 4-Methyl-N-(p-tolyl)-2-(2H-1,2,3-triazol-2-yl)pentanamide]?
IC50 (Cytotoxicity A549): > 100 µM; IC50 (HDAC-8): > 100 µM; IC50 (HDAC-3): > 100 µM; IC50 (Cytotoxicity HEK293): > 100 µM; inhibition at 100 µM (MMP-1): 7 ± 4%; IC50 (ADAM17 (TACE)): > 100 µM; IC50 (Cytotoxicity HepG2): > 100 µM; MIC (P. aeruginosa PA14): > 100 µM; IC50 (LasB): 5.3 ± 0.2 µM

With `CC(C)CC(C(=O)Nc1ccc(Cl)c(Cl)c1)n1nccn1` (stereo not shown) [Example 178] as the compound, how does the IC50 (LasB) read?
The IC50 was 5.5 ± 0.2 µM.

For `CC(C)CC(C(=O)Nc1ccc(OCc2ccc(Cl)c(Cl)c2)cc1)n1nccn1` (stereo not shown) [Example 179], which IC50 (LasB) is on record?
The IC50 was 30 µM.
